Assays:
Assay in all cases: drug sensitivity score (DSS3, normalised partial AUC of % inhibition dose-response) (DSS (score)); higher = more sensitive (stronger inhibition of viability); extreme values may be limits of the assay
FMOC25_1 = patient-derived low-grade serous ovarian cancer cells; settings: 72 h; library: FO4B; assay format: 2D, 384-well, CellTiter-Glo
How it was run: (§1)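 Patient-derived ovarian cancer cells (early passage, under 10) were dispensed onto 384-well flat clear-bottom plates pre-plated with compounds at five concentrations covering a 10,000-fold range. Plates were incubated 72 h at 37 °C, 5% CO2, and viability was read with CellTiter-Glo. Data were processed in Breeze. The drug sensitivity score (DSS3) is a partial area under the percent-inhibition dose-response curve, divided by the log of the upper asymptote; higher means more sensitive.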

FMOC17 = patient-derived low-grade serous ovarian cancer cells; settings: 72 h; library: FO5A; assay format: 2D, 384-well, CellTiter-Glo
How it was run: as §1

FMOC06 = patient-derived mucinous ovarian cancer cells; settings: 72 h; library: FO5A; assay format: 2D, 384-well, CellTiter-Glo
How it was run: as §1

FMOC28 = patient-derived low-grade serous ovarian cancer cells; settings: 72 h; library: FO5A; assay format: 2D, 384-well, CellTiter-Glo
How it was run: as §1

FMOC11 = patient-derived high-grade serous ovarian cancer cells; settings: 72 h; library: FO5A; assay format: 2D, 384-well, CellTiter-Glo
How it was run: as §1

FMOC02_3 = patient-derived low-grade serous ovarian cancer cells; settings: 72 h; library: FO5A; assay format: 2D, 384-well, CellTiter-Glo
How it was run: as §1

FMOC03 = patient-derived mucinous ovarian cancer cells; settings: 72 h; library: FO5A; assay format: 2D, 384-well, CellTiter-Glo
How it was run: as §1

FMOC14 = patient-derived high-grade serous ovarian cancer cells; settings: 72 h; library: FO5A; assay format: 2D, 384-well, CellTiter-Glo
How it was run: as §1

FMOC02_2 = patient-derived low-grade serous ovarian cancer cells; settings: 72 h; library: FO5A; assay format: 2D, 384-well, CellTiter-Glo
How it was run: as §1

FMOC24 = patient-derived high-grade serous ovarian cancer cells; settings: 72 h; library: FO5A; assay format: 2D, 384-well, CellTiter-Glo
How it was run: as §1

FMOC27 = patient-derived low-grade serous ovarian cancer cells; settings: 72 h; library: FO5A; assay format: 2D, 384-well, CellTiter-Glo
How it was run: as §1

FMOC22 = patient-derived mucinous ovarian cancer cells; settings: 72 h; library: FO5A; assay format: 2D, 384-well, CellTiter-Glo
How it was run: as §1

FMOC09 = patient-derived high-grade serous ovarian cancer cells; settings: 72 h; library: FO5A; assay format: 2D, 384-well, CellTiter-Glo
How it was run: as §1

FMOC25_2 = patient-derived low-grade serous ovarian cancer cells; settings: 72 h; library: FO5A; assay format: 2D, 384-well, CellTiter-Glo
How it was run: as §1

FMOC02_1 = patient-derived low-grade serous ovarian cancer cells; settings: 72 h; library: FO5A; assay format: 2D, 384-well, CellTiter-Glo
How it was run: as §1

FMOC04 = patient-derived high-grade serous ovarian cancer cells; settings: 72 h; library: FO5A; assay format: 2D, 384-well, CellTiter-Glo
How it was run: as §1

Cc1cc(C(C)Nc2ccccc2)c2nc(N3CCOCC3)cc(=O)n2c1 (stereo unspecified) [TGX-221]
drug sensitivity score (FMOC25_1): 1.7
drug sensitivity score (FMOC17): 2.4
drug sensitivity score (FMOC06): 1.1
drug sensitivity score (FMOC28): 0
drug sensitivity score (FMOC11): 0.3
drug sensitivity score (FMOC02_3): 0.8
drug sensitivity score (FMOC03): 1
drug sensitivity score (FMOC14): 0
drug sensitivity score (FMOC02_2): 3.3
drug sensitivity score (FMOC24): 0.75
drug sensitivity score (FMOC27): 2
drug sensitivity score (FMOC22): 0
drug sensitivity score (FMOC09): 0
drug sensitivity score (FMOC25_2): 2.6
drug sensitivity score (FMOC02_1): 2
drug sensitivity score (FMOC04): 0.35

Nc1nc(NC2CC2)cc(-c2cccc(Cl)c2Cl)n1 [TH588]
drug sensitivity score (FMOC25_1): 2.1
drug sensitivity score (FMOC17): 3
drug sensitivity score (FMOC06): 0
drug sensitivity score (FMOC28): 5.7
drug sensitivity score (FMOC11): 2.2
drug sensitivity score (FMOC02_3): 5.4
drug sensitivity score (FMOC03): 0.4
drug sensitivity score (FMOC14): 0.2
drug sensitivity score (FMOC02_2): 5.2
drug sensitivity score (FMOC24): 0.2
drug sensitivity score (FMOC27): 2.3
drug sensitivity score (FMOC22): 2.3
drug sensitivity score (FMOC09): 1.2
drug sensitivity score (FMOC25_2): 2.2
drug sensitivity score (FMOC02_1): 3.4
drug sensitivity score (FMOC04): 1.15

Clc1ccccc1C(c1ccccc1)(c1ccccc1)n1cccn1 [TRAM-34]
drug sensitivity score (FMOC25_1): 0
drug sensitivity score (FMOC17): 0
drug sensitivity score (FMOC06): 0
drug sensitivity score (FMOC28): 1.5
drug sensitivity score (FMOC11): 0
drug sensitivity score (FMOC02_3): 0
drug sensitivity score (FMOC03): 0
drug sensitivity score (FMOC14): 0
drug sensitivity score (FMOC02_2): 0
drug sensitivity score (FMOC24): 0
drug sensitivity score (FMOC27): 0
drug sensitivity score (FMOC22): 0
drug sensitivity score (FMOC09): 0
drug sensitivity score (FMOC25_2): 0
drug sensitivity score (FMOC02_1): 0
drug sensitivity score (FMOC04): 0

CC(=O)Nc1ccc(C(=O)Nc2ccccc2N)cc1 [Tacedinaline]
drug sensitivity score (FMOC25_1): 0
drug sensitivity score (FMOC17): 1.1
drug sensitivity score (FMOC06): 3.7
drug sensitivity score (FMOC28): 1.7
drug sensitivity score (FMOC11): 1
drug sensitivity score (FMOC02_3): 2
drug sensitivity score (FMOC03): 0
drug sensitivity score (FMOC14): 0.6
drug sensitivity score (FMOC02_2): 1.3
drug sensitivity score (FMOC24): 2.05
drug sensitivity score (FMOC27): 0
drug sensitivity score (FMOC22): 0
drug sensitivity score (FMOC09): 0
drug sensitivity score (FMOC25_2): 0
drug sensitivity score (FMOC02_1): 0.7
drug sensitivity score (FMOC04): 0

C=CC[C@@H]1/C=C(\C)C[C@H](C)C[C@H](OC)[C@H]2O[C@@](O)(C(=O)C(=O)N3CCCC[C@H]3C(=O)O[C@H](/C(C)=C/[C@@H]3CC[C@@H](O)[C@H](OC)C3)[C@H](C)[C@@H](O)CC1=O)[C@H](C)C[C@@H]2OC [Tacrolimus]
drug sensitivity score (FMOC25_1): 0
drug sensitivity score (FMOC17): 0.9
drug sensitivity score (FMOC06): 0
drug sensitivity score (FMOC28): 0.8
drug sensitivity score (FMOC11): 1.4
drug sensitivity score (FMOC02_3): 1.9
drug sensitivity score (FMOC03): 0
drug sensitivity score (FMOC14): 1.4
drug sensitivity score (FMOC02_2): 1.9
drug sensitivity score (FMOC24): 5
drug sensitivity score (FMOC27): 1.7
drug sensitivity score (FMOC22): 0.1
drug sensitivity score (FMOC09): 0
drug sensitivity score (FMOC25_2): 0
drug sensitivity score (FMOC02_1): 0.4
drug sensitivity score (FMOC04): 0

Cn1ncnc1[C@H]1c2n[nH]c(=O)c3cc(F)cc(c23)N[C@@H]1c1ccc(F)cc1 [Talazoparib]
drug sensitivity score (FMOC25_1): 4.8
drug sensitivity score (FMOC17): 2.7
drug sensitivity score (FMOC06): 2.2
drug sensitivity score (FMOC28): 0.7
drug sensitivity score (FMOC11): 1.4
drug sensitivity score (FMOC02_3): 5.7
drug sensitivity score (FMOC03): 0.1
drug sensitivity score (FMOC14): 0.7
drug sensitivity score (FMOC02_2): 2.3
drug sensitivity score (FMOC24): 4.1
drug sensitivity score (FMOC27): 5.5
drug sensitivity score (FMOC22): 3.5
drug sensitivity score (FMOC09): 0.9
drug sensitivity score (FMOC25_2): 5.7
drug sensitivity score (FMOC02_1): 7
drug sensitivity score (FMOC04): 0.25

C[C@@H]1CN(Cc2ccc(F)cc2)[C@@H](C)CN1C(=O)c1cc2c(C(=O)C(=O)N(C)C)cn(C)c2cc1Cl [Talmapimod]
drug sensitivity score (FMOC25_1): 0
drug sensitivity score (FMOC17): 0
drug sensitivity score (FMOC06): 0
drug sensitivity score (FMOC28): 1.2
drug sensitivity score (FMOC11): 0.2
drug sensitivity score (FMOC02_3): 0
drug sensitivity score (FMOC03): 0
drug sensitivity score (FMOC14): 0
drug sensitivity score (FMOC02_2): 0
drug sensitivity score (FMOC24): 0
drug sensitivity score (FMOC27): 0
drug sensitivity score (FMOC22): 0
drug sensitivity score (FMOC09): 0
drug sensitivity score (FMOC25_2): 0
drug sensitivity score (FMOC02_1): 0
drug sensitivity score (FMOC04): 0

CC/C(=C(\c1ccccc1)c1ccc(OCCN(C)C)cc1)c1ccccc1 [Tamoxifen]
drug sensitivity score (FMOC25_1): 2.3
drug sensitivity score (FMOC17): 3
drug sensitivity score (FMOC06): 5.2
drug sensitivity score (FMOC28): 2.6
drug sensitivity score (FMOC11): 3.9
drug sensitivity score (FMOC02_3): 4.8
drug sensitivity score (FMOC03): 4.3
drug sensitivity score (FMOC14): 4
drug sensitivity score (FMOC02_2): 3.8
drug sensitivity score (FMOC24): 7.35
drug sensitivity score (FMOC27): 3.1
drug sensitivity score (FMOC22): 3.2
drug sensitivity score (FMOC09): 1.6
drug sensitivity score (FMOC25_2): 2.4
drug sensitivity score (FMOC02_1): 6.5
drug sensitivity score (FMOC04): 3.75

COc1cc2c(N3CCN(C(=O)Nc4ccc(OC(C)C)cc4)CC3)ncnc2cc1OCCCN1CCCCC1 [Tandutinib]
drug sensitivity score (FMOC25_1): 0
drug sensitivity score (FMOC17): 0
drug sensitivity score (FMOC06): 0
drug sensitivity score (FMOC28): 1.4
drug sensitivity score (FMOC11): 0
drug sensitivity score (FMOC02_3): 0
drug sensitivity score (FMOC03): 0
drug sensitivity score (FMOC14): 0
drug sensitivity score (FMOC02_2): 0
drug sensitivity score (FMOC24): 0.75
drug sensitivity score (FMOC27): 0
drug sensitivity score (FMOC22): 0
drug sensitivity score (FMOC09): 0
drug sensitivity score (FMOC25_2): 0
drug sensitivity score (FMOC02_1): 0
drug sensitivity score (FMOC04): 0

O[C@H]1CC[C@H](Nc2ncc3nc(Nc4c(F)cc(F)cc4F)n([C@H]4CCOC4)c3n2)CC1 [Tanzisertib]
drug sensitivity score (FMOC25_1): 0
drug sensitivity score (FMOC17): 0.8
drug sensitivity score (FMOC06): 0
drug sensitivity score (FMOC28): 0
drug sensitivity score (FMOC11): 0
drug sensitivity score (FMOC02_3): 1.1
drug sensitivity score (FMOC03): 0
drug sensitivity score (FMOC14): 0
drug sensitivity score (FMOC02_2): 1.6
drug sensitivity score (FMOC24): 1.45
drug sensitivity score (FMOC27): 0.1
drug sensitivity score (FMOC22): 0.1
drug sensitivity score (FMOC09): 0
drug sensitivity score (FMOC25_2): 0
drug sensitivity score (FMOC02_1): 2.3
drug sensitivity score (FMOC04): 0

C[C@@H](C(=O)O)c1ccc(-c2ccccc2)c(F)c1 [Tarenflurbil]
drug sensitivity score (FMOC25_1): 0
drug sensitivity score (FMOC17): 0
drug sensitivity score (FMOC06): 0
drug sensitivity score (FMOC28): 0
drug sensitivity score (FMOC11): 0
drug sensitivity score (FMOC02_3): 0.3
drug sensitivity score (FMOC03): 0
drug sensitivity score (FMOC14): 0
drug sensitivity score (FMOC02_2): 0
drug sensitivity score (FMOC24): 1.05
drug sensitivity score (FMOC27): 0
drug sensitivity score (FMOC22): 0
drug sensitivity score (FMOC09): 0
drug sensitivity score (FMOC25_2): 0
drug sensitivity score (FMOC02_1): 0
drug sensitivity score (FMOC04): 0
